Test results reported in patent US6482849B1, “Inhibitors of α4β1 mediated cell adhesion” (Tanabe Seiyaku Co., Ltd., priority 1997, dated 2002).

Legend:
[1] = target: T1, α4β1 integrin (Jurkat T-cell adhesion to IL-1 stimulated endothelial cell monolayers) (Homo sapiens, UniProt P05556+P13612); assay: Jurkat-Endothelial Cell Adhesion Assay (Jurkat EC); assay type: cell-based; conditions: Jurkat cells on IL-1 stimulated HUVEC monolayers
T1 construct: a T-cell line, Jurkat, known to express the α4β1 integrin; host or cells: Jurkat T-cell line
T1 sequence (P13612 34-1032): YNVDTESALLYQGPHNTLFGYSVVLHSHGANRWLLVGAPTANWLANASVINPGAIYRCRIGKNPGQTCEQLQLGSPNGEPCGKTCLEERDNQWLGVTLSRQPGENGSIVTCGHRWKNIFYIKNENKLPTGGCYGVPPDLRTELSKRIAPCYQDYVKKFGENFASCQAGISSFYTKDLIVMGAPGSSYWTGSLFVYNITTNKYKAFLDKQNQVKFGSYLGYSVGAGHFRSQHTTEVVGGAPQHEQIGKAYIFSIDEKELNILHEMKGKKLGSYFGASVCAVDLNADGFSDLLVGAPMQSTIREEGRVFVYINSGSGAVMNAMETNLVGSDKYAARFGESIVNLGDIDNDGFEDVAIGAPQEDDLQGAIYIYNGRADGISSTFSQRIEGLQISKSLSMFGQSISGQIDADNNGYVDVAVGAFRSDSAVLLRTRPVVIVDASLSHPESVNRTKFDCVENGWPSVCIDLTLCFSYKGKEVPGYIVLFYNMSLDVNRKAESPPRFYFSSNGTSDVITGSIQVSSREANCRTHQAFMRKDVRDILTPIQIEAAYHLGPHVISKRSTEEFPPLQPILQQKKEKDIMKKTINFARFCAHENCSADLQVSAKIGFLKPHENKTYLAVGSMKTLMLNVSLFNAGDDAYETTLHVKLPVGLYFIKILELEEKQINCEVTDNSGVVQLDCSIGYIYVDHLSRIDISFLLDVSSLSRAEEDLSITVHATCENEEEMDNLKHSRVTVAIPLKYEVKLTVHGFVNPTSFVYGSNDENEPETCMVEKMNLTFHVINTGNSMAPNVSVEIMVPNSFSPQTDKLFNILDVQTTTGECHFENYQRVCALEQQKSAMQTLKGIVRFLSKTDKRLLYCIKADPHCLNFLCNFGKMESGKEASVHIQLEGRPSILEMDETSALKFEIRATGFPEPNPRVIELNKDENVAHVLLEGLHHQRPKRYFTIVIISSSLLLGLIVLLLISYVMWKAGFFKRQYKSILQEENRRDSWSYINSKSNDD
T1 sequence (P05556 21-798): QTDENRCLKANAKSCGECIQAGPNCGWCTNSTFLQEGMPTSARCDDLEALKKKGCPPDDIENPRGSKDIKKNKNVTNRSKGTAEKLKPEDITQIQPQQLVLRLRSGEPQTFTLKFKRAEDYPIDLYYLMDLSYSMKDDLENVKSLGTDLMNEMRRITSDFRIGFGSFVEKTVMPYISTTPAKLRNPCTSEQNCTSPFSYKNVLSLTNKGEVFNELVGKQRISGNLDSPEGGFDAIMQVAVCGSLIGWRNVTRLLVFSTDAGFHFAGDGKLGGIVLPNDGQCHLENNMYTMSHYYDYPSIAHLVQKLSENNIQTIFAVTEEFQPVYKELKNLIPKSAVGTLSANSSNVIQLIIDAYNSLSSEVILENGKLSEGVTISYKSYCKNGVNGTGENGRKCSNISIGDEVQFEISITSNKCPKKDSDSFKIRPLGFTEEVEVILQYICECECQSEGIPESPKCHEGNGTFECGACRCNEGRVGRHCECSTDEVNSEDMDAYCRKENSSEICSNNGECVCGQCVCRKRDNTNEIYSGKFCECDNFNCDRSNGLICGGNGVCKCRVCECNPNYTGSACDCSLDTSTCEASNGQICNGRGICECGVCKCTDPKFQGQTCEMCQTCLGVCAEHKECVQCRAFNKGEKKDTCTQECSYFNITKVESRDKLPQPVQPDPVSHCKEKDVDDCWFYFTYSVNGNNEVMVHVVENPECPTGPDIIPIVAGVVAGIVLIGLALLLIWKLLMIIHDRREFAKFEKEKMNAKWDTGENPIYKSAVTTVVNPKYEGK
Procedure: The following assay established the activity of the present compounds in inhibiting β1-mediated cell adhesion in a representative in vitro system. This assay measures the adhesive interactions of a T-cell line, Jurkat, known to express the α4β1 integrin, to endothelial monolayers in the presence of test compounds. The test compounds were added in increasing concentrations to T-cells and then the T-cell compound mixture was added to IL-1 stimulated endothelial cell monolayers. The plates were incubated, washed and the percentage of attached cells was quantitated. […] Human umbilical vein endothelial cells were purchased from Clonetics (San Diego, Calif.) at passage number 2. The cells were grown on 0.5% porcine skin gelatin pre-coated flasks (Sigma, St. Louis Mo.) in EGM-UV media (Clonetics, San Diego, Calif.) supplemented with 10% fetal bovine serum. Cells are refed every 2-3 days reaching confluence by day 4 to 6. […] The endothelial cells are not used following passage 6. Am The T-cell line Jurkat was obtained from American Type Tissue Culture Collection (Rockville, Md.) and the cells were cultured in RPMI containing 10% fetal calf serum. The cells were washed twice in Hank's Balanced Salt Solution (HBSS) and resuspended in Dulbecco's […] Eagle's Media (DMEM) containing 2.5 mg/ml Human Serum Albumin (HSA). Jurkat cells (1×10^6 cells/ml) were stained with 10 ng/ml BCECF-AM z z (Molecular Probes, Eugene, Ore.)) in HBSS without phenol red. The cells were loaded with BCECF for 60 minutes in the dark at 37° C., washed 2 times, and resusupended in DMEM-HSA solution.
Confluent endothelial monolayers, grown in 96-well tissue culture plates, were stimulated for 4 hr. at 37° C. with 0.1 ng/ml (˜50 U/ml) recombinant IL-1 (Amgen, Thousand Oaks, Calif.). Following this incubation, the monolayers were washed twice with HBSS and 0.1 ml of DMEM-HSA solution was added. Jurkat cells (5×10^5 cells) were combined with the appropriate concentration of the test compound and 0.1 ml of the Jurkat cell-compound mixture was added to the endothelial cell monolayers. Generally, 100, 20, 5 and 1.25 μM compound concentrations were tested. […] The plates were placed on ice for 5 minutes to allow for Jurkat cell settling and the plates were incubated at 37° C. for 20 minutes. Following this incubation, the monolayers were washed twice with PBS containing 1 mM calcium chloride and 1 mM magnesium chloride and the plates were read using a Millipore Cytofluor 2300 (Marlboro, Mass.). Fluorescence in each well was measured as Arbitrary Fluorescence Units and percent adhesion in the absence of compound was adjusted to 100% and the % adhesion in the presence of compound was calculated. Monolayers were also fixed in 3% paraformaldehyde and evaluated microscopically to verify the adhesion. This procedure is a modification of a previously published method (Cardarelli et al., J. Biol. Chem. 269:18668-18673 (1994)).

[2] = target: T2, α4β1 integrin (Jurkat cell adhesion to immobilized CS-1 derived peptide CLHPGEILDVPST) (Homo sapiens, UniProt P05556+P13612); assay: Jurkat-CS-1 Assay; assay type: cell-based; conditions: Jurkat cells on CS-1 peptide coated plates
T2 construct: 100 μl of Jurkat cells (2.5×10^6 cells/ml) in DMEM plus BSA; endogenous in cells; host or cells: Jurkat T-cell line
T2 sequence (P13612 34-1032): as the sequence (P13612 34-1032) above
T2 sequence (P05556 21-798): as the sequence (P05556 21-798) above
Procedure: The CS-1 derived peptide, CLHPGEILDVPST, and the scrambled control peptide, CLHGPIELVSDPT, were synthesized on a Beckman 990 synthesizer using t-Boc methodology. The peptides were immobilized onto microtiter plates using the heterobifunctional crosslinker 3-(2-pyridyldithio)propionic acid N-hydroxysuccinimide ester (SPDP) as reported by Pierschbacher et al., Proc. Natl. Acad. USA, 80:1224-1227 (1983). Microtiter plates were coated with 20 μg/ml HSA for 2 hr. at room temperature, washed once with PBS and derivatized with 10 μg/ml SPDP for 1 hr. After washing, 100 μl of a 100 μg/ml cysteine containing peptide solution which had been recently dissolved was added to the wells and allowed to crosslink to the plates overnight at 4° C. Unbound peptide was removed from plates by washing with PBS. To block non-reacted sites, the plates are coated with 100 μl of a 2.5 mg/ml BSA solution in PBS for 1 hr. at 37° C. 100 μl of Jurkat cells (2.5×10^6 cells/ml) in DMEM plus BSA (2.5 mg/ml) was mixed with an appropriate concentration of the compound to be tested and the mixture was added to peptide coated dishes and incubated for 1 hr. at 37° C. Generally 100, 20, 5 and 1.25 μM concentrations of the compound were tested.
Following this incubation the plates were washed once with PBS and the attached cells were fixed with 3% paraformaldehyde in PBS and stained with 0.5% toluidine blue in 3.7% formaldehyde. The cells were stained overnight at room temperature and the optical density at 590 nm of toluidine blue stained cells was determined using a vertical pathway spectrophotometer to quantitate attachment (VMAX Kinetic Microplate Reader, Molecular Devices, Menlo Park, Calif.). This procedure is a modification of a previously published method (Cardarelli et al, J. Biol. Chem., 269:18668-18673 (1994) and Cardarelli et al, Proc. Natl. Acad. Sci. USA, 83:2647-2651 (1986)).

| Structure (SMILES) | melting point | IC50 [1] | IC50 [2] |
| --- | --- | --- | --- |
| CC1(C)[C@@H](C(=O)O)CC[C@@]1(C)C(=O)N[C@H](CC(=O)O)Cc1ccc(OCc2c(Cl)cccc2Cl)cc1 (relative stereo) [Example 204, [1R-[1α(S*),3α]]-β-[[(3-Carboxy-1,2,2-trimethylcyclopentyl)carbonyl]amino]-4-[(2,6-dichlorophenyl)methoxy]-benzenebutanoic acid] | 106 to 108 °C |  |  |
| COC(=O)C(Cc1cn(Cc2ccc(Cl)c(Cl)c2)cn1)NC(=O)[C@H]1CC[C@@](C)(C(=O)O)C1(C)C (stereo in doubt) [Example 3, (1S-cis)-N-[(3-Carboxy-2,2,3-trimethylcyclopentyl)carbonyl]-1-[(3,4-dichlorophenyl)methyl]-L-histidine methyl ester] | 174 to 175 °C (dec.) |  |  |
| CC1(C)[C@@H](C(=O)O)CC[C@@]1(C)C(=O)N[C@@H](Cc1ccc(OCc2c(Cl)cccc2Cl)cc1)C(=O)O [Example 186, (1R-cis)-N-[(3-Carboxy-1,2,2-trimethylcyclopentyl)carbonyl]-O-[(2,6-dichlorophenyl)methyl]-L-tyrosine] |  | 800 to 5000 nM | 80 to 500 nM |
| CC1(C)[C@@H](C(=O)N[C@@H](Cc2ccc(OCc3c(Cl)cccc3Cl)cc2)C(=O)O)CC[C@@]1(C)C(=O)NCC(N)=O [Example 187, (1S-cis)-N-[[3-[[(2-amino-2-oxoethyl)-amino]carbonyl]-2,2,3-trimethylcyclopentyl]carbonyl]-O-[(2,6-dichlorophenyl)methyl]-L-tyrosine] |  | 800 to 5000 nM | 80 to 500 nM |
| CC(C)(C)OC(=O)[C@]1(C)CC[C@H](C(=O)N[C@@H](Cc2cn(Cc3ccc(Cl)c(Cl)c3)cn2)C(=O)O)C1(C)C [Example 202, (1S-cis)-1-[(3,4-Dichlorophenyl)methyl]-N-[[3-[(1,1-dimethylethoxy)carbonyl]-2,2,3-trimethylcyclopentyl]carbonyl]-L-histidine] | 234 to 235 °C |  |  |
| CC1(C)[C@@H](C(=O)N[C@@H](Cc2ccc(NC(=O)c3c(Cl)cccc3Cl)cc2)C(=O)O)CC[C@@]1(C)C(=O)NCCC(=O)O [Example 214] |  | ≤ 800 nM | ≤ 80 nM |
| CC1(C)[C@@H](C(=O)N[C@@H](Cc2ccc(NC(=O)c3c(Cl)cccc3Cl)cc2)C(=O)O)CC[C@@]1(C)C(=O)NCCC#N [Example 216, (1S-cis)-N-[[3-[[(2-Cyanoethyl)amino]carbonyl]-2,2,3-trimethylcyclopentyl]carbonyl]-4-[(2,6-dichlorobenzoyl)amino]-L-phenylalanine] |  | ≤ 800 nM | ≤ 80 nM |
| CC1(C)[C@@H](C(=O)N[C@@H](Cc2ccc(NC(=O)c3c(Cl)cccc3Cl)cc2)C(=O)O)CC[C@@]1(C)C(=O)NO [Example 219, (1S-cis)-4-[(2,6-Dichlorobenzoyl)amino]-N-[[3-[(hydroxyamino)carbonyl]-2,2,3-trimethyl-cyclopentyl]carbonyl]-L-phenylalanine] |  | ≤ 800 nM | ≤ 80 nM |
| CC1(C)[C@@H](C(=O)N[C@@H](Cc2ccc(C(=O)Nc3ccc(-c4ccccc4)cc3)cc2)C(=O)O)CC[C@@]1(C)C(=O)O [Example 220] |  | 800 to 5000 nM | 80 to 500 nM |
| CC1(C)[C@@H](C(=O)N[C@@H](Cc2ccc(C(=O)Nc3ccc(Cl)cc3)cc2)C(=O)O)CC[C@@]1(C)C(=O)O [Example 221] |  | 5000 to 10000 nM | 500 to 1000 nM |
| CC1(C)[C@@H](C(=O)N[C@@H](Cc2ccc(C(=O)Nc3ccccc3C(F)(F)F)cc2)C(=O)O)CC[C@@]1(C)C(=O)O [Example 222] |  | ≤ 800 nM | 80 to 500 nM |

Now from value to molecule:

| melting point | IC50 [1] | IC50 [2] | Structure (SMILES) |
| --- | --- | --- | --- |
|  | ≤ 800 nM | ≤ 80 nM | CC1(C)[C@@H](C(=O)N[C@@H](Cc2ccc(C(=O)Nc3c(Cl)cc(Cl)cc3Cl)cc2)C(=O)O)CC[C@@]1(C)C(=O)O [Example 223] |
|  | ≤ 800 nM | ≤ 80 nM | CC1(C)[C@@H](C(=O)N[C@@H](Cc2ccc(NC(=O)c3c(Cl)cccc3Cl)cc2)C(=O)O)CC[C@@]1(C)C(=O)N1CCOCC1 [Example 225, (1S-cis)-4-[(2,6-Dichlorobenzoyl)amino]-N-[[2,2,3-trimethyl-3-[(4-morpholinyl)carbonyl]-cyclopentyl]carbonyl]-L-phenylalanine] |
|  | ≤ 800 nM | 500 to 1000 nM | COC(=O)[C@H](Cc1ccc(NC(=O)c2cc(C(F)(F)F)ccc2Cl)cc1)NC(=O)[C@H]1CC[C@@](C)(C(=O)O)C1(C)C [Example 231, (1S-cis)-N-[(3-Carboxy-2,2,3-trimethyl-cyclopentyl)carbonyl]-4-[(2-chloro-5-trifluoromethylbenzoyl)amino]-L-phenylalanine methyl ester] |
|  | ≤ 800 nM | ≤ 80 nM | CC1(C)[C@@H](C(=O)N[C@@H](Cc2ccc(NC(=O)c3cc(C(F)(F)F)ccc3Cl)cc2)C(=O)O)CC[C@@]1(C)C(=O)O [Example 232, (1S-cis)-N-[(3-Carboxy-2,2,3-trimethyl-cyclopentyl)carbonyl]-4-[(2-chloro-5-trifluoromethylbenzoyl)amino]-L-phenylalanine] |
| 232 to 233 °C |  |  | COC(=O)[C@H](Cc1ccc(NC(=O)c2c(Cl)cccc2Cl)cc1)NC(=O)[C@H]1CC[C@@](C)(C(=O)NCC(N)=O)C1(C)C [Example 233, (1S-cis)-N-[[3-[[(2-Amino-2-oxoethyl)amino]carbonyl]-2,2,3-trimethylcyclopentyl]carbonyl]-4-[(2,6-dichlorobenzoyl)amino]-L-phenylalanine methyl ester] |
| 263 to 267 °C |  |  | CC1(C)[C@@H](C(=O)N[C@H](Cc2ccc(NC(=O)c3c(Cl)cccc3Cl)cc2)C(=O)O)CC[C@@]1(C)C(=O)O [Example 237, (1S-cis)-N-[(3-Carboxy-2,2,3-trimethylcyclopentyl)carbonyl]-4-[(2,6-dichlorobenzoyl)amino]-D-phenylalanine] |
| 152 to 157 °C |  |  | CC1(C)[C@H](C(=O)O)CC[C@]1(C)C(=O)N[C@@H](Cc1ccc(NC(=O)c2c(Cl)cccc2Cl)cc1)C(=O)O [Example 244, (1S-cis)-N-[(3-Carboxy-1,2,2-trimethylcyclopentyl)carbonyl]-4-[(2,6-dichlorobenzoyl)amino]-L-phenylalanine] |
|  | 800 to 5000 nM | 80 to 500 nM | CC(C)(C)c1ccc(C(=O)Nc2ccc(C[C@H](NC(=O)[C@H]3CC[C@@](C)(C(=O)O)C3(C)C)C(=O)O)cc2)c(Cl)c1 [Example 253, (1S-cis)-N-[(3-Carboxy-2,2,3-trimethylcyclopentyl)carbonyl]-4-[[2-chloro-4-[(1,1-dimethyl)ethyl]benzoyl]amino]-L-phenylalanine] |
